Assay results published in patent US10723741B1, “DNA polymerase IIIC inhibitors and use thereof” (Acurx Pharmaceuticals, LLC, priority 2018, dated 2020).
Converted amounts (≈) assume the structure as drawn.

Experiments:
Assay type in all cases: cell-based
[1] = system: Enterococcus faecalis ATCC 29212; test: Broth microdilution MIC, E. faecalis ATCC 29212; conditions: ATCC29212, broth microdilution, 37° C., 20 hours, read-out: MIC E. faecalis ATCC 29212
Outline: (§1)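 Broth microdilution in strain-specific test medium with ~5.0×10^5 cfu/ml inoculum, 1% DMSO and two-fold compound dilutions from 64 to 0.0625 μg/ml. Plates were held 20 hours at 37° C in ambient air. S. pneumoniae colonies were grown beforehand on blood agar in 5% CO2.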

[2] = system: Staphylococcus aureus ATCC 29213 (MSSA); test: Broth microdilution MIC, S. aureus ATCC 29213 (MSSA); conditions: broth microdilution, 37° C., 20 hours, read-out: MIC S. aureus ATCC 29213 (MSSA)
Outline: as §1

[3] = system: Bacillus subtilis ATCC 6633; test: Broth microdilution MIC, B. subtilis ATCC 6633; conditions: ATCC6633, broth microdilution, 37° C., 20 hours, read-out: MIC B. subtilis ATCC 6633
Outline: as §1

[4] = system: Enterococcus faecium ATCC 700221 (VRE); test: Broth microdilution MIC, E. faecium ATCC 700221 (VRE); conditions: Enterococcus faecium; broth microdilution, 37° C., 20 hours; read-out: MIC E. faecium ATCC 700221 (VRE)
Outline: as §1

[5] = system: Streptococcus pneumoniae ATCC 49619; test: Broth microdilution MIC, S. pneumoniae ATCC 49619; conditions: ATCC49619, broth microdilution, 37° C., 20 hours, read-out: MIC S. pneumoniae ATCC 49619
Outline: as §1

[6] = system: Escherichia coli ATCC 25922; test: Broth microdilution MIC, E. coli ATCC 25922 (MHIIB w & w/o 4 mM EDTA); conditions: broth microdilution, 37° C., 20 hours; for MIC: Escherichia coli, ATCC25922, without EDTA, read-out: MIC E. coli ATCC 25922; for MIC E. coli ATCC 25922 + 4 mM EDTA: with 4 mM EDTA
Outline: as §1

[7] = system: Staphylococcus aureus NRS384 (MRSA); test: Broth microdilution MIC, S. aureus NRS384 (MRSA); conditions: Staphylococcus aureus; broth microdilution, 37° C., 20 hours; read-out: MIC NRS 384 (MRSA)
Outline: as §1

Row | MIC [1] | MIC [2] | MIC [3] | MIC [4] | MIC [5] | MIC [6] | MIC E. coli ATCC 25922 + 4 mM EDTA [6] | MIC [7] | Compound
1 | > 64 µg/mL | > 64 µg/mL | > 64 µg/mL | > 64 µg/mL | > 64 µg/mL | > 64 µg/mL | >64 µg/mL | > 64 µg/mL | CC(C(=O)O)n1cc2nc(NCc3ccc(Cl)c(Cl)c3)[nH]c(=O)c2n1 (stereo not drawn) [Compound 223, 2-(5-((3,4-dichlorobenzyl)amino)-7-oxo-6,7-dihydro-2H-pyrazolo[4,3-d]pyrimidin-2-yl)propanoic acid]
2 | > 64 µg/mL | > 64 µg/mL | > 64 µg/mL | > 64 µg/mL | 32 µg/mL (≈ 80.8 µM) | > 64 µg/mL | >64 µg/mL | > 64 µg/mL | COC(=O)C(C)n1cc2nc(NCc3ccc(Cl)c(Cl)c3)[nH]c(=O)c2n1 (stereo not drawn) [Compound 224, Methyl 2-(5-((3,4-dichlorobenzyl)amino)-7-oxo-6,7-dihydro-2H-pyrazolo[4,3-d]pyrimidin-2-yl)propanoate]
3 | 64 µg/mL (≈ 174 µM) | 64 µg/mL (≈ 174 µM) | 32 µg/mL (≈ 86.9 µM) | 32 µg/mL (≈ 86.9 µM) | 16 µg/mL (≈ 43.5 µM) | > 64 µg/mL | >64 µg/mL | 64 µg/mL (≈ 174 µM) | CC(CO)n1cc2nc(NCc3ccc(Cl)c(Cl)c3)[nH]c(=O)c2n1 (stereo not drawn) [Compound 225, 5-((3,4-dichlorobenzyl)amino)-2-(1-hydroxypropan-2-yl)-2H-pyrazolo[4,3-d]pyrimidin-7(6H)-one]
4 | > 64 µg/mL | > 64 µg/mL | 64 µg/mL (≈ 167 µM) | 64 µg/mL (≈ 167 µM) | > 64 µg/mL | > 64 µg/mL | >64 µg/mL | 64 µg/mL (≈ 167 µM) | CC(C(=O)O)n1ncc2nc(NCc3ccc(Cl)c(Cl)c3)[nH]c(=O)c21 (stereo not drawn) [Compound 226, 2-(5-((3,4-dichlorobenzyl)amino)-7-oxo-6,7-dihydro-1H-pyrazolo[4,3-d]pyrimidin-1-yl)propanoic acid]
5 | 16 µg/mL (≈ 40.4 µM) | 8 µg/mL (≈ 20.2 µM) | 4 µg/mL (≈ 10.1 µM) | 4 µg/mL (≈ 10.1 µM) | 16 µg/mL (≈ 40.4 µM) | > 64 µg/mL | 32 µg/mL | 8 µg/mL (≈ 20.2 µM) | COC(=O)C(C)n1ncc2nc(NCc3ccc(Cl)c(Cl)c3)[nH]c(=O)c21 (stereo not drawn) [Compound 227, Methyl 2-(5-((3,4-dichlorobenzyl)amino)-7-oxo-6,7-dihydro-1H-pyrazolo[4,3-d]pyrimidin-1-yl)propanoate]
6 | 16 µg/mL (≈ 43.5 µM) | 16 µg/mL (≈ 43.5 µM) | 4 µg/mL (≈ 10.9 µM) | 8 µg/mL (≈ 21.7 µM) | 8 µg/mL (≈ 21.7 µM) | > 64 µg/mL | 64 µg/mL | 8 µg/mL (≈ 21.7 µM) | CC(CO)n1ncc2nc(NCc3ccc(Cl)c(Cl)c3)[nH]c(=O)c21 (stereo not drawn) [Compound 228, 5-((3,4-dichlorobenzyl)amino)-1-(1-hydroxypropan-2-yl)-1H-pyrazolo[4,3-d]pyrimidin-7(6H)-one]
7 | 64 µg/mL (≈ 167 µM) | > 64 µg/mL | > 64 µg/mL | 64 µg/mL (≈ 167 µM) | 16 µg/mL (≈ 41.9 µM) | > 64 µg/mL | >64 µg/mL | > 64 µg/mL | O=C(O)CCn1ncc2nc(NCc3ccc(Cl)c(Cl)c3)[nH]c(=O)c21 [Compound 229, 3-(5-((3,4-dichlorobenzyl)amino)-7-oxo-6,7-dihydro-1H-pyrazolo[4,3-d]pyrimidin-1-yl)propanoic Acid]
8 | 64 µg/mL (≈ 167 µM) | > 64 µg/mL | 64 µg/mL (≈ 167 µM) | 64 µg/mL (≈ 167 µM) | 32 µg/mL (≈ 83.7 µM) | > 64 µg/mL | 64 µg/mL | 64 µg/mL (≈ 167 µM) | O=C(O)CCn1cc2nc(NCc3ccc(Cl)c(Cl)c3)[nH]c(=O)c2n1 [Compound 230, 3-(5-((3,4-Dichlorobenzyl)amino)-7-oxo-6,7-dihydro-2H-pyrazolo[4,3-d]pyrimidin-2-yl)propanoic acid]
9 | 4 µg/mL (≈ 10.1 µM) | 4 µg/mL (≈ 10.1 µM) | 1 µg/mL (≈ 2.52 µM) | 2 µg/mL (≈ 5.05 µM) | 4 µg/mL (≈ 10.1 µM) | > 64 µg/mL | >64 µg/mL | 2 µg/mL (≈ 5.05 µM) | COC(=O)CCn1ncc2nc(NCc3ccc(Cl)c(Cl)c3)[nH]c(=O)c21 [Compound 231, Methyl 3-(5-((3,4-dichlorobenzyl)amino)-7-oxo-6,7-dihydro-1H-pyrazolo[4,3-d]pyrimidin-1-yl)propanoate]
10 | > 64 µg/mL | > 64 µg/mL | 16 µg/mL (≈ 40.4 µM) | 16 µg/mL (≈ 40.4 µM) | 16 µg/mL (≈ 40.4 µM) | > 64 µg/mL | >64 µg/mL | 32 µg/mL (≈ 80.8 µM) | COC(=O)CCn1cc2nc(NCc3ccc(Cl)c(Cl)c3)[nH]c(=O)c2n1 [Compound 232, Methyl 3-(5-((3,4-dichlorobenzyl)amino)-7-oxo-6,7-dihydro-2H-pyrazolo[4,3-d]pyrimidin-2-yl)propanoate]
11 | 4 µg/mL (≈ 9.52 µM) | 4 µg/mL (≈ 9.52 µM) | 2 µg/mL (≈ 4.76 µM) | 2 µg/mL (≈ 4.76 µM) | 2 µg/mL (≈ 4.76 µM) | > 64 µg/mL | 64 µg/mL | 4 µg/mL (≈ 9.52 µM) | Cc1nnc(CCn2ncc3nc(NCc4ccc(Cl)c(Cl)c4)[nH]c(=O)c32)o1 [Compound 233, 5-((3,4-dichlorobenzyl)amino)-1-(2-(5-methyl-1,3,4-oxadiazol-2-yl)ethyl)-1H-pyrazolo[4,3-d]pyrimidin-7(6H)-one]
12 | 32 µg/mL | 64 µg/mL | 16 µg/mL | 8 µg/mL | 16 µg/mL | > 64 µg/mL | >64 µg/mL | 64 µg/mL | Cl.O=c1[nH]c(NCc2ccc(Cl)c(Cl)c2)nc2cnn(CCc3nnc(CO)o3)c12 [Compound 234, 5-((3,4-dichlorobenzyl)amino)-1-(2-(5-(hydroxymethyl)-1,3,4-oxadiazol-2-yl)ethyl)-1H-pyrazolo[4,3-d]pyrimidin-7(6H)-one hydrochloride]
13 | 8 µg/mL | 8 µg/mL | 4 µg/mL | 4 µg/mL | 8 µg/mL | > 64 µg/mL | >64 µg/mL | 16 µg/mL | COCc1nnc(CCn2ncc3nc(NCc4ccc(Cl)c(Cl)c4)[nH]c(=O)c32)o1.Cl [Compound 235, 5-((3,4-dichlorobenzyl)amino)-1-(2-(5-(methoxymethyl)-1,3,4-oxadiazol-2-yl)ethyl)-1H-pyrazolo[4,3-d]pyrimidin-7(6H)-one hydrochloride]
14 | 32 µg/mL (≈ 76.7 µM) | 32 µg/mL (≈ 76.7 µM) | 16 µg/mL (≈ 38.3 µM) | 16 µg/mL (≈ 38.3 µM) | 4 µg/mL (≈ 9.59 µM) | > 64 µg/mL | 64 µg/mL | 32 µg/mL (≈ 76.7 µM) | NS(=O)(=O)CCn1ncc2nc(NCc3ccc(Cl)c(Cl)c3)[nH]c(=O)c21 [Compound 237, 2-(5-((3,4-dichlorobenzyl)amino)-7-oxo-6,7-dihydro-1H-pyrazolo[4,3-d]pyrimidin-1-yl)ethanesulfonamide]
15 | 8 µg/mL (≈ 16.9 µM) | 8 µg/mL (≈ 16.9 µM) | 4 µg/mL (≈ 8.45 µM) | 2 µg/mL (≈ 4.22 µM) | 8 µg/mL (≈ 16.9 µM) | > 64 µg/mL | >64 µg/mL | 4 µg/mL (≈ 8.45 µM) | CC(C)(C)NS(=O)(=O)CCn1ncc2nc(NCc3ccc(Cl)c(Cl)c3)[nH]c(=O)c21 [Compound 238, N-(tert-butyl)-2-(5-((3,4-dichlorobenzyl)amino)-7-oxo-6,7-dihydro-1H-pyrazolo[4,3-d]pyrimidin-1-yl)ethanesulfonamide]
16 | 8 µg/mL (≈ 21.7 µM) | 4 µg/mL (≈ 10.9 µM) | 2 µg/mL (≈ 5.43 µM) | 2 µg/mL (≈ 5.43 µM) | 8 µg/mL (≈ 21.7 µM) | > 64 µg/mL | >64 µg/mL | 4 µg/mL (≈ 10.9 µM) | C[C@@H](O)Cn1ncc2nc(NCc3ccc(Cl)c(Cl)c3)[nH]c(=O)c21 [Compound 239, (R)-5-((3,4-dichlorobenzyl)amino)-1-(2-hydroxypropyl)-1H-pyrazolo[4,3-d]pyrimidin-7(6H)-one]
17 | 8 µg/mL (≈ 21.7 µM) | 4 µg/mL (≈ 10.9 µM) | 2 µg/mL (≈ 5.43 µM) | 4 µg/mL (≈ 10.9 µM) | 4 µg/mL (≈ 10.9 µM) | > 64 µg/mL | >64 µg/mL | 4 µg/mL (≈ 10.9 µM) | C[C@H](O)Cn1ncc2nc(NCc3ccc(Cl)c(Cl)c3)[nH]c(=O)c21 [Compound 240, (S)-5-((3,4-dichlorobenzyl)amino)-1-(2-hydroxypropyl)-1H-pyrazolo[4,3-d]pyrimidin-7(6H)-one]

Row | Compound | MIC [1] | MIC [2] | MIC [3] | MIC [4] | MIC [5] | MIC [6] | MIC E. coli ATCC 25922 + 4 mM EDTA [6] | MIC [7]
18 | Cl.O=c1[nH]c(NCc2ccc(Cl)c(Cl)c2)nc2cnn(CC3C(O)C4CCN3CC4)c12 (stereo not drawn) [Compound 236, 5-((3,4-Dichlorobenzyl)amino)-1-((3-hydroxyquinuclidin-2-yl)methyl)-1H-pyrazolo[4,3-d]pyrimidin-7(6H)-one] | 64 µg/mL | > 64 µg/mL | 32 µg/mL | 64 µg/mL | 8 µg/mL | > 64 µg/mL | 64 µg/mL | > 64 µg/mL
